Key:
[1] = biological target: asparaginase of E.coli immobilized in hydrogel prepared with albumin and PEG 10,000 (Escherichia coli, UniProt P00805); assay: Apparent Km of asparaginase immobilized in albumin-PEG 10,000 hydrogel; format: biochemical; conditions: slab thickness of 3 mm
Procedure: (§1) As another example of enzyme immobilization in hydrogels prepared with albumin and PEG 10,000 of Mr, the enzyme asparaginase of E.coli was used. […] The operational stability of the immobilized enzyme in presence of a continuous feeding in substrate extend at 37° C. over a 20 days period without significant loss of activity.

[2] = substrate: NC(=O)C[C@H](N)C(=O)O; assay: Km of soluble asparaginase for asparagine; format: biochemical, E.coli; conditions: other: soluble form of the enzyme; pH 8.0; 37.0 °C
Procedure: as §1

Molecule | apparent Km for the substrate asparagine [1] [µM] | Km [2] [µM]
NC(=O)C[C@H](N)C(=O)O [asparagine] | 2.4 | 
asparaginase of E.coli, soluble form (Escherichia coli K-12) (protein) LPNITILATGGTIAGGGDSATKSNYTVGKVGVENLVNAVPQLKDIANVKGEQVVNIGSQDMNDNVWLTLAKKINTDCDKTDGFVITHGTDTMEETAYFLDLTVKCDKPVVMVGAMRPSTSMSADGPFNLYNAVVTAADKASANRGVLVVMNDTVLDGRDVTKTNTTDVATFKSVNYGPLGYIHNGKIDYQRTPARKHTSDTPFDVSKLNELPKVGIVYNYANASDLPAKALVDAGYDGIVSAGVGNGNLYKSVFDTLATAAKTGTAVVRSSRVPTGATTQDAEVDDAKYGFVASGTLNPQKARVLLQLALTQTKDPQQIQQIFNQY |  | 2.2
